Test results: the kinase profiling compilation of Christmann-Franck et al. (2016)

Experiments:
Assay in all cases: radiometric filter-binding kinase assay, Kinase HotSpot
Conditions in all cases: compound 0.5 µM; ATP 10 µM
[1] = molecular target: HIPK3 (human) (UniProt Q9H422)
[2] = molecular target: PDGFRA (human) (UniProt P16234)
[3] = molecular target: ACVR1 (human) (UniProt Q04771)
[4] = molecular target: MAP4K4 (human) (UniProt O95819)
[5] = molecular target: STK25 (human) (UniProt O00506)
[6] = molecular target: PRKD1 (human) (UniProt Q15139)
[7] = molecular target: GRK5 (human) (UniProt P34947)
[8] = molecular target: CAMK2B (human) (UniProt Q13554)
[9] = molecular target: EPHA7 (human) (UniProt Q15375)
[10] = molecular target: CDK1 CCNB1 (human) (UniProt P06493+P14635)
[11] = molecular target: CDK3 CCNE1 (human) (UniProt Q00526+P24864)
[12] = molecular target: ALK (human) (UniProt Q9UM73)
[13] = molecular target: PRKCA (human) (UniProt P17252)
[14] = molecular target: ADRBK1 (human) (UniProt P25098)
[15] = molecular target: CAMK1D (human) (UniProt Q8IU85)
[16] = molecular target: NTRK1 (human) (UniProt P04629)
[17] = molecular target: CDK7 CCNH MNAT1 (human) (UniProt P50613+P51948+P51946)
[18] = molecular target: CHUK (human) (UniProt O15111)
[19] = molecular target: NEK2 (human) (UniProt P51955)
[20] = molecular target: PRKCI (human) (UniProt P41743)
[21] = molecular target: AKT3 (human) (UniProt Q9Y243)
[22] = molecular target: SRPK1 (human) (UniProt Q96SB4)
[23] = molecular target: CDK2 CCNE1 (human) (UniProt P24941+P24864)
[24] = molecular target: CAMKK1 (human) (UniProt Q8N5S9)
[25] = molecular target: MINK1 (human) (UniProt Q8N4C8)
[26] = molecular target: CSNK1G1 (human) (UniProt Q9HCP0)
[27] = molecular target: LIMK1 (human) (UniProt P53667)
[28] = molecular target: TGFBR1 (human) (UniProt P36897)
[29] = molecular target: DYRK1A (human) (UniProt Q13627)
[30] = molecular target: PRKCG (human) (UniProt P05129)
[31] = molecular target: PDGFRB (human) (UniProt P09619)
[32] = molecular target: SRMS (human) (UniProt Q9H3Y6)
[33] = molecular target: GRK6 (human) (UniProt P43250)
[34] = molecular target: NEK4 (human) (UniProt P51957)
[35] = molecular target: WNK3 (human) (UniProt Q9BYP7)
[36] = molecular target: EGFR (human) (UniProt P00533)
[37] = molecular target: PRKCZ (human) (UniProt Q05513)
[38] = molecular target: MELK (human) (UniProt Q14680)
[39] = molecular target: PRKD3 (human) (UniProt O94806)
[40] = molecular target: CAMK1 (human) (UniProt Q14012)
[41] = molecular target: MKNK2 (human) (UniProt Q9HBH9)
[42] = molecular target: LCK (human) (UniProt P06239)

CDK7 CCNH MNAT1 (human), sequence (P50613 whole entry, looked up): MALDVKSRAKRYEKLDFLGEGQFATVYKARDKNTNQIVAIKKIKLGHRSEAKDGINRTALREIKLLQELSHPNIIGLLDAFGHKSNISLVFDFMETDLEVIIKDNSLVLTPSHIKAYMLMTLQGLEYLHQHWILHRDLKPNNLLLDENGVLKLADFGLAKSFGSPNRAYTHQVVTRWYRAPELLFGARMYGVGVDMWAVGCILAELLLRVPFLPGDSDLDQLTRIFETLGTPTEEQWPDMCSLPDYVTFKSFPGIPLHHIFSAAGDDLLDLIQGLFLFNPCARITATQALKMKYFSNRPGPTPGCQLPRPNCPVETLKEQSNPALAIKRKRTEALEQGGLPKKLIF
CDK7 CCNH MNAT1 (human), sequence (P51946 whole entry, looked up): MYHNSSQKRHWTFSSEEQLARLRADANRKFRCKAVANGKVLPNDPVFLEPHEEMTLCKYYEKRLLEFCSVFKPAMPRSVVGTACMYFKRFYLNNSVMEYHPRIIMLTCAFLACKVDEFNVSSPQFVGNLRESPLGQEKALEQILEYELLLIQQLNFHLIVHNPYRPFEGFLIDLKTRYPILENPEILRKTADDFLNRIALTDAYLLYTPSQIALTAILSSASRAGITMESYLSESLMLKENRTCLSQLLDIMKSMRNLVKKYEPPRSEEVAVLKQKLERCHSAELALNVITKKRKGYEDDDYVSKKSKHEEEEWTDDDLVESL
CDK7 CCNH MNAT1 (human), sequence (P51948 whole entry, looked up): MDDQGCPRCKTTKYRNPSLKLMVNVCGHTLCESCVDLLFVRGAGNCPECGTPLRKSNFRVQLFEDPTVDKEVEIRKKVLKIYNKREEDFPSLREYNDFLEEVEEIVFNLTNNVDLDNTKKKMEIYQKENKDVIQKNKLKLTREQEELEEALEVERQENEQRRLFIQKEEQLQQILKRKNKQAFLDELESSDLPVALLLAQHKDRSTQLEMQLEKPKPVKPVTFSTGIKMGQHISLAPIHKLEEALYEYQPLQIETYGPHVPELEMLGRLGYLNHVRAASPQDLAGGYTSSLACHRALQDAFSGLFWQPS
STK25 (human), sequence (O00506 whole entry, looked up): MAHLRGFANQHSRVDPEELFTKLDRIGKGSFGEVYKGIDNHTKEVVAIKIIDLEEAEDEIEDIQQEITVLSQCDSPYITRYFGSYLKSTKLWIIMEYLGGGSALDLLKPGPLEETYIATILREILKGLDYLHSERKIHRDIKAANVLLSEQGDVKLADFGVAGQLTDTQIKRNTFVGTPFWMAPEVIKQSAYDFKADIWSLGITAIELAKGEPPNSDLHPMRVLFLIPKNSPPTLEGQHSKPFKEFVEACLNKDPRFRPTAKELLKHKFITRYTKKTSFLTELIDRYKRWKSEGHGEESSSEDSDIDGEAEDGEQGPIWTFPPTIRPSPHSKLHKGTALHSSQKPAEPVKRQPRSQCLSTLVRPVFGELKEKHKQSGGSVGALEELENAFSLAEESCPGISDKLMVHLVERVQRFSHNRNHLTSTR
MAP4K4 (human), sequence (O95819 whole entry, looked up): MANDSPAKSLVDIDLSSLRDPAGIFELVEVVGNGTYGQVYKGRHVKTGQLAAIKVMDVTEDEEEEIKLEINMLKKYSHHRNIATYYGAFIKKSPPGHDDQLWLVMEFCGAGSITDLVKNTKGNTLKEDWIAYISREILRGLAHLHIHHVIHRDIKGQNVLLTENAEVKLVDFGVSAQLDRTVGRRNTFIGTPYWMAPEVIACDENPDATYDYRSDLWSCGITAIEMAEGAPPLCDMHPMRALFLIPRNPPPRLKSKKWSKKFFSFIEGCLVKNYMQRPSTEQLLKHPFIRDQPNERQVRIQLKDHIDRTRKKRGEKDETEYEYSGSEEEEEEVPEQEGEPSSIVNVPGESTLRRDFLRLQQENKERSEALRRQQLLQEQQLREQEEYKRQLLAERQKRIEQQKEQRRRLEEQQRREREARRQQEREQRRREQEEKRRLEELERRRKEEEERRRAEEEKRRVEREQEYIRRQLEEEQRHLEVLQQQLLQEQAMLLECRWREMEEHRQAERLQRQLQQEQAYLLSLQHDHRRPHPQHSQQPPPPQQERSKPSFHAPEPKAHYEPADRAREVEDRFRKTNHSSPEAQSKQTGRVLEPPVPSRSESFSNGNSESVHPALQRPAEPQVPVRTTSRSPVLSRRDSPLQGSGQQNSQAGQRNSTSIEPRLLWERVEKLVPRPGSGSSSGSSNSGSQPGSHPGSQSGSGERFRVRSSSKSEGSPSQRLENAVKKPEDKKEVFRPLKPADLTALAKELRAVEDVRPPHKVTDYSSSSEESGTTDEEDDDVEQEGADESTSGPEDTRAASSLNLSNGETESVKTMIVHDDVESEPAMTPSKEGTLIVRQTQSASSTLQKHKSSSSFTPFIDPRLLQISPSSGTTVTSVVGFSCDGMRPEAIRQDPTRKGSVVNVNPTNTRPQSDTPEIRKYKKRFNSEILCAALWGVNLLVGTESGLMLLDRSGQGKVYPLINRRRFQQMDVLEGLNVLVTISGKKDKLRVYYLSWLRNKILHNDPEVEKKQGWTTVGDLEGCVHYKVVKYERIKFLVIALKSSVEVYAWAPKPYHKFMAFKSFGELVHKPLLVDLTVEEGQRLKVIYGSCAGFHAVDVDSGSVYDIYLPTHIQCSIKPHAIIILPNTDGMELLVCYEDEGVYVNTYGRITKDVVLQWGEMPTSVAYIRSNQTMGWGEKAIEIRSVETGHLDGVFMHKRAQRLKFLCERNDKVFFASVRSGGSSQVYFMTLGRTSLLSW
NTRK1 (human), sequence (P04629 whole entry, looked up): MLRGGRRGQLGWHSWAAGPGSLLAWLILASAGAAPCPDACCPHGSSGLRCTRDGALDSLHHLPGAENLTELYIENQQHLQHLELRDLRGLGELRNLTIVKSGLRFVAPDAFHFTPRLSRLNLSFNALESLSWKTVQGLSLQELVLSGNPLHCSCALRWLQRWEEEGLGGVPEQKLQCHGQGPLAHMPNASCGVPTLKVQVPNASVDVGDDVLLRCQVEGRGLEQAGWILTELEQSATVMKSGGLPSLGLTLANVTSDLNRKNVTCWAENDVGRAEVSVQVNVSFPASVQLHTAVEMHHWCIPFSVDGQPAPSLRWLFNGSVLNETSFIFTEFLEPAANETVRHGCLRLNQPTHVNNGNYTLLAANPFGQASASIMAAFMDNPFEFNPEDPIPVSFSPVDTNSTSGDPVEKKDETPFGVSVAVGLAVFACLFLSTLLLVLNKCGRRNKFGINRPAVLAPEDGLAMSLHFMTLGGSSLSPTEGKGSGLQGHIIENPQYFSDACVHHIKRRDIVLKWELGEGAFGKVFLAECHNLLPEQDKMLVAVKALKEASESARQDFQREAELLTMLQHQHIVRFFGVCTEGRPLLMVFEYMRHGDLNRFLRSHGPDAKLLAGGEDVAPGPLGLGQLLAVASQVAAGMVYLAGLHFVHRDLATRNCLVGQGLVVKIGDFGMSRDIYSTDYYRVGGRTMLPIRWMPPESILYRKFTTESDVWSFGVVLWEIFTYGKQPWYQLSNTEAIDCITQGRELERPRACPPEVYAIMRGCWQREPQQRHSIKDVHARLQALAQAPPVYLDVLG
MELK (human), sequence (Q14680 whole entry, looked up): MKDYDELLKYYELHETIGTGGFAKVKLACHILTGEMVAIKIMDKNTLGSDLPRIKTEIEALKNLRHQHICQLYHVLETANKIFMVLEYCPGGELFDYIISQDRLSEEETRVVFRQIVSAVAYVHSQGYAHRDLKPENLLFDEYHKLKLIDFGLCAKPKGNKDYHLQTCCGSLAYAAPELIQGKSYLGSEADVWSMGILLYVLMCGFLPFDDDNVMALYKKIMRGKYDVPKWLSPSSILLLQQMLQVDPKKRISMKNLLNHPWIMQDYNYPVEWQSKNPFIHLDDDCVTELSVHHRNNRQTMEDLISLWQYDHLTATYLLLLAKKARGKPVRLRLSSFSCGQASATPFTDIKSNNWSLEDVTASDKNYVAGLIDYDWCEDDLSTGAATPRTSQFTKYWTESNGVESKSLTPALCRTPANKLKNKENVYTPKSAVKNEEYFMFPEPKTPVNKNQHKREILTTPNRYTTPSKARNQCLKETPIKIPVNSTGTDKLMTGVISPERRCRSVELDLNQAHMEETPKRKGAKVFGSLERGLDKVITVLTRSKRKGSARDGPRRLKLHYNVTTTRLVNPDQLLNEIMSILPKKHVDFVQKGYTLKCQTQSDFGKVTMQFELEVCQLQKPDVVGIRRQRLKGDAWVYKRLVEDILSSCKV
TGFBR1 (human), sequence (P36897 whole entry, looked up): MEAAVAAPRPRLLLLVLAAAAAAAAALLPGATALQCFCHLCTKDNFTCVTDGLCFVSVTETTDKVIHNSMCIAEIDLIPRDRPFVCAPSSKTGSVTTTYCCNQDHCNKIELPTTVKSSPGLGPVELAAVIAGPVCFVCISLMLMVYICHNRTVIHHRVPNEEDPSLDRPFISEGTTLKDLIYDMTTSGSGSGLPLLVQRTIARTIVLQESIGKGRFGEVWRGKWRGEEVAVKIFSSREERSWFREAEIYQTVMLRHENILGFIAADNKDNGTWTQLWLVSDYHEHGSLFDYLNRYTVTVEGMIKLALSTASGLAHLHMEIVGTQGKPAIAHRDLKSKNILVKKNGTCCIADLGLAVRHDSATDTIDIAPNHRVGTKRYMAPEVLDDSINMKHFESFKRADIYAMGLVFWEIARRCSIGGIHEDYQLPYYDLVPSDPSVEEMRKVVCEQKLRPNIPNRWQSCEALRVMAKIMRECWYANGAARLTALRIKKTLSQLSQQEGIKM
CSNK1G1 (human), sequence (Q9HCP0 whole entry, looked up): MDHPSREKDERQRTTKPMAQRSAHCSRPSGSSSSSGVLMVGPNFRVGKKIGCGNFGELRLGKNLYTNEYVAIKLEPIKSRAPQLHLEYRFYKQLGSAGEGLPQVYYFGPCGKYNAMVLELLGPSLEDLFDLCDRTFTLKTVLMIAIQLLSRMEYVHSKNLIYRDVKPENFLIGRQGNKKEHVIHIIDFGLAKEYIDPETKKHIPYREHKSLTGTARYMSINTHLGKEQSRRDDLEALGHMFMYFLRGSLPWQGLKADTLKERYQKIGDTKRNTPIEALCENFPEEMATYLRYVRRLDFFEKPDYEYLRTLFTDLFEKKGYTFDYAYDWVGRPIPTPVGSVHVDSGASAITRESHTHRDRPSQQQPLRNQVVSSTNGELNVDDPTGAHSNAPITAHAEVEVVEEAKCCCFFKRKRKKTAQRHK

Compound `O=C(Nc1cccc(Nc2nccc(Nc3cccc(C(F)(F)F)c3)n2)c1)C1CC1` has a residual activity [1] of 104%, a residual activity [2] of 89.3% and a residual activity [3] of 111%. It also gave a residual activity [4] of 92.4%, a residual activity [5] of 98.1% and a residual activity [6] of 94.1%. The residual activity [7] was 104%, the residual activity [8] was 102% and the residual activity [9] was 112%. The residual activity [10] was 89.3%, the residual activity [11] was 98.1% and the residual activity [12] was 99.8%. The residual activity [13] was 71.9%, the residual activity [14] was 84.7% and the residual activity [15] was 100%. For the same compound, the residual activity [16] was 98.1%, the residual activity [17] was 92.6% and the residual activity [18] was 95.7%. For the same compound, the residual activity [19] was 95.3%, the residual activity [20] was 91.3% and the residual activity [21] was 108%. It also gave a residual activity [22] of 104%, a residual activity [23] of 85.1% and a residual activity [24] of 97.9%. For the same compound, the residual activity [25] was 108%, the residual activity [26] was 105% and the residual activity [27] was 45.1%. It also gave a residual activity [28] of 102%, a residual activity [29] of 107% and a residual activity [30] of 90.9%. For the same compound, the residual activity [31] was 101%, the residual activity [32] was 95.5% and the residual activity [33] was 93.8%. It also gave a residual activity [34] of 83.4%, a residual activity [35] of 105% and a residual activity [36] of 87.6%. For the same compound, the residual activity [37] was 98.8%, the residual activity [38] was 101% and the residual activity [39] was 91.9%. It also gave a residual activity [40] of 95.5% and a residual activity [41] of 91.3%.

In the case of `Cc1[nH]c(/C=C2\C(=O)Nc3ccc(S(=O)(=O)N(C)c4cccc(Cl)c4)cc32)c(C)c1C(=O)N1CCN(C)CC1`, the residual activity [1] is reported as 103%, the residual activity [2] is reported as 72.8% and the residual activity [3] is reported as 96.8%. It also gave a residual activity [4] of 40.9%, a residual activity [5] of 91% and a residual activity [6] of 61.8%. For the same compound, the residual activity [7] was 98.9%, the residual activity [8] was 89.8% and the residual activity [9] was 85.8%. It also gave a residual activity [10] of 101%, a residual activity [11] of 89.4% and a residual activity [12] of 77.7%. The residual activity [13] was 91.9%, the residual activity [14] was 105% and the residual activity [15] was 138%. It also gave a residual activity [16] of 7.81%, a residual activity [17] of 59.7% and a residual activity [18] of 100%. The residual activity [19] was 50.8%, the residual activity [20] was 98.7% and the residual activity [21] was 107%. It also gave a residual activity [22] of 77.3%, a residual activity [23] of 87% and a residual activity [24] of 93.3%. It also gave a residual activity [25] of 68.7%, a residual activity [26] of 104% and a residual activity [27] of 87.9%. For the same compound, the residual activity [28] was 103%, the residual activity [29] was 94.1% and the residual activity [30] was 94.8%. For the same compound, the residual activity [31] was 76.4%, the residual activity [32] was 104% and the residual activity [33] was 89.7%. It also gave a residual activity [34] of 79.7%, a residual activity [36] of 97.1% and a residual activity [37] of 94.5%. It also gave a residual activity [38] of 78.9%, a residual activity [39] of 42.7% and a residual activity [40] of 95.8%. It also gave a residual activity [42] of 29.3% and a residual activity [41] of 106%.

Compound `CC(=O)c1ccc(N2CCOCC2)cc1O` has a residual activity [1] of 101%, a residual activity [2] of 94.7% and a residual activity [3] of 107%. It also gave a residual activity [4] of 96.9%, a residual activity [5] of 90.9% and a residual activity [6] of 102%. The residual activity [7] was 108%, the residual activity [8] was 105% and the residual activity [9] was 95.5%. The residual activity [10] was 86.8%, the residual activity [11] was 102% and the residual activity [12] was 106%. For the same compound, the residual activity [13] was 73.4%, the residual activity [14] was 99% and the residual activity [15] was 96.9%. The residual activity [16] was 97.2%, the residual activity [17] was 105% and the residual activity [18] was 96.2%. For the same compound, the residual activity [19] was 81.3%, the residual activity [20] was 96.3% and the residual activity [21] was 107%. For the same compound, the residual activity [22] was 90.7%, the residual activity [23] was 94.8% and the residual activity [24] was 124%. It also gave a residual activity [25] of 94.3%, a residual activity [26] of 91.8% and a residual activity [27] of 93.6%. For the same compound, the residual activity [28] was 96.6%, the residual activity [29] was 98% and the residual activity [30] was 98.7%. The residual activity [31] was 105%, the residual activity [32] was 94.7% and the residual activity [33] was 100%. The residual activity [34] was 103%, the residual activity [36] was 97.4% and the residual activity [37] was 111%. The residual activity [38] was 102%, the residual activity [39] was 98.4% and the residual activity [40] was 102%. It also gave a residual activity [42] of 100% and a residual activity [41] of 90.7%.
